Data on 5 compounds can be found in the supplement of paper PMC10307832.

The first assay has as its system NCI-H2087. As to the kind of experiment: relative viability (nuclei count vs DMSO), 5 days (fraction); higher = more cells survive. The settings on record: first compound 0.8 µM. An outline of the steps:
(§1)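 Relative viability divides the nuclei count in treated wells by that in vehicle wells. Lung cancer cell lines were seeded in 1536-well plates, dosed by pin tool the next day, and fixed and stained after 5 days in one step with final 0.05% Triton X-100, 1% formaldehyde and 1 ug/ml Hoechst. Dosing was a single drug or a fixed anchor-drug dose plus five library-drug doses (not always all listed) in √10 steps, and values are medians of duplicate plates imaged at 4×.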
The compound `Nc1cccc2c1CN(C1CCC(=O)NC1=O)C2=O` (stereo not given) [Lenalidomide] + CCNC(=O)c1noc(-c2cc(C(C)C)c(O)cc2O)c1-c1ccc(CN2CCOCC2)cc1 [Luminespib] (partner 0.01 µM) yielded a relative viability of 0.156.
On to `Nc1cccc2c1CN(C1CCC(=O)NC1=O)C2=O` (stereo not given) [Lenalidomide] + Cc1nc(Nc2ncc(C(=O)Nc3c(C)cccc3Cl)s2)cc(N2CCN(CCO)CC2)n1 [Dasatinib] (partner 0.075 µM), for which the relative viability was 0.851.
Take `Nc1cccc2c1CN(C1CCC(=O)NC1=O)C2=O` (stereo not given) [Lenalidomide] + N=C(N)NC(=N)NCCc1ccccc1 [Phenformin] (partner 250 µM): the relative viability worked out at 0.372.

Still in this assay, the particulars now being: first compound 2.53 µM.
As to `Nc1cccc2c1CN(C1CCC(=O)NC1=O)C2=O` (stereo not given) [Lenalidomide] + CCNC(=O)c1noc(-c2cc(C(C)C)c(O)cc2O)c1-c1ccc(CN2CCOCC2)cc1 [Luminespib] (partner 0.01 µM), the relative viability amounted to 0.14.
As to `Nc1cccc2c1CN(C1CCC(=O)NC1=O)C2=O` (stereo not given) [Lenalidomide] + Nc1ncn([C@H]2C[C@H](O)[C@@H](CO)O2)c(=O)n1 [Decitabine] (partner 2 µM), the relative viability came out at 0.303.
Still for that read-out and setting: as for `Nc1cccc2c1CN(C1CCC(=O)NC1=O)C2=O` (stereo not given) [Lenalidomide] + Cc1nc(Nc2ncc(C(=O)Nc3c(C)cccc3Cl)s2)cc(N2CCN(CCO)CC2)n1 [Dasatinib] (partner 0.075 µM), the figure is 0.928; as for `Nc1cccc2c1CN(C1CCC(=O)NC1=O)C2=O` (stereo not given) [Lenalidomide] + N=C(N)NC(=N)NCCc1ccccc1 [Phenformin] (partner 250 µM), 0.505; as for `Nc1cccc2c1CN(C1CCC(=O)NC1=O)C2=O` (stereo not given) [Lenalidomide] + CC(=O)c1c(C)c2cnc(Nc3ccc(N4CCNCC4)cn3)nc2n(C2CCCC2)c1=O [Palbociclib] (partner 0.5 µM), 0.192.

The assay is the same for the next values; noted with them: first compound 8 µM.
In turn, `Nc1cccc2c1CN(C1CCC(=O)NC1=O)C2=O` (stereo not given) [Lenalidomide] + CCNC(=O)c1noc(-c2cc(C(C)C)c(O)cc2O)c1-c1ccc(CN2CCOCC2)cc1 [Luminespib] (partner 0.01 µM) yielded a relative viability of 0.169.
`Nc1cccc2c1CN(C1CCC(=O)NC1=O)C2=O` (stereo not given) [Lenalidomide] + Nc1ncn([C@H]2C[C@H](O)[C@@H](CO)O2)c(=O)n1 [Decitabine] (partner 2 µM) registered a relative viability of 0.292.
Consider `Nc1cccc2c1CN(C1CCC(=O)NC1=O)C2=O` (stereo not given) [Lenalidomide] + Cc1nc(Nc2ncc(C(=O)Nc3c(C)cccc3Cl)s2)cc(N2CCN(CCO)CC2)n1 [Dasatinib] (partner 0.075 µM), for which the relative viability was 0.829.
The compound `Nc1cccc2c1CN(C1CCC(=O)NC1=O)C2=O` (stereo not given) [Lenalidomide] + N=C(N)NC(=N)NCCc1ccccc1 [Phenformin] (partner 250 µM) had a relative viability of 0.477.
`Nc1cccc2c1CN(C1CCC(=O)NC1=O)C2=O` (stereo not given) [Lenalidomide] + CC(=O)c1c(C)c2cnc(Nc3ccc(N4CCNCC4)cn3)nc2n(C2CCCC2)c1=O [Palbociclib] (partner 0.5 µM) yielded a relative viability of 0.196.

The next assay deals with NCI-H596. Described as above. The note with it: first compound 0.253 µM. An outline of the steps: as §1
On to `Nc1cccc2c1CN(C1CCC(=O)NC1=O)C2=O` (stereo not given) [Lenalidomide] + CCNC(=O)c1noc(-c2cc(C(C)C)c(O)cc2O)c1-c1ccc(CN2CCOCC2)cc1 [Luminespib] (partner 0.01 µM), for which the relative viability was determined as 0.967.
Take `Nc1cccc2c1CN(C1CCC(=O)NC1=O)C2=O` (stereo not given) [Lenalidomide] + Nc1ncn([C@H]2C[C@H](O)[C@@H](CO)O2)c(=O)n1 [Decitabine] (partner 2 µM): the relative viability turned out to be 0.85.
For the compound `Nc1cccc2c1CN(C1CCC(=O)NC1=O)C2=O` (stereo not given) [Lenalidomide] + Cc1nc(Nc2ncc(C(=O)Nc3c(C)cccc3Cl)s2)cc(N2CCN(CCO)CC2)n1 [Dasatinib] (partner 0.075 µM), the relative viability worked out at 0.644.
`Nc1cccc2c1CN(C1CCC(=O)NC1=O)C2=O` (stereo not given) [Lenalidomide] + N=C(N)NC(=N)NCCc1ccccc1 [Phenformin] (partner 250 µM) gave a relative viability of 0.752.

Staying with this assay, now noted: first compound 0.8 µM.
With `Nc1cccc2c1CN(C1CCC(=O)NC1=O)C2=O` (stereo not given) [Lenalidomide] + Nc1ncn([C@H]2C[C@H](O)[C@@H](CO)O2)c(=O)n1 [Decitabine] (partner 2 µM), the relative viability is 1.46.

Still in this assay, the particulars now being: first compound 2.53 µM.
`Nc1cccc2c1CN(C1CCC(=O)NC1=O)C2=O` (stereo not given) [Lenalidomide] + CCNC(=O)c1noc(-c2cc(C(C)C)c(O)cc2O)c1-c1ccc(CN2CCOCC2)cc1 [Luminespib] (partner 0.01 µM) showed a relative viability of 1.29.
As to `Nc1cccc2c1CN(C1CCC(=O)NC1=O)C2=O` (stereo not given) [Lenalidomide] + Nc1ncn([C@H]2C[C@H](O)[C@@H](CO)O2)c(=O)n1 [Decitabine] (partner 2 µM), the relative viability is 1.06.
In turn, `Nc1cccc2c1CN(C1CCC(=O)NC1=O)C2=O` (stereo not given) [Lenalidomide] + Cc1nc(Nc2ncc(C(=O)Nc3c(C)cccc3Cl)s2)cc(N2CCN(CCO)CC2)n1 [Dasatinib] (partner 0.075 µM) gave a relative viability of 0.655.
In turn, `Nc1cccc2c1CN(C1CCC(=O)NC1=O)C2=O` (stereo not given) [Lenalidomide] + N=C(N)NC(=N)NCCc1ccccc1 [Phenformin] (partner 250 µM) displayed a relative viability of 0.911.

Still in this assay, the particulars now being: first compound 8 µM.
In the case of `Nc1cccc2c1CN(C1CCC(=O)NC1=O)C2=O` (stereo not given) [Lenalidomide] + CCNC(=O)c1noc(-c2cc(C(C)C)c(O)cc2O)c1-c1ccc(CN2CCOCC2)cc1 [Luminespib] (partner 0.01 µM), the relative viability amounted to 0.985.
Same read-out and setting: as for `Nc1cccc2c1CN(C1CCC(=O)NC1=O)C2=O` (stereo not given) [Lenalidomide] + Nc1ncn([C@H]2C[C@H](O)[C@@H](CO)O2)c(=O)n1 [Decitabine] (partner 2 µM), the figure is 0.95; as for `Nc1cccc2c1CN(C1CCC(=O)NC1=O)C2=O` (stereo not given) [Lenalidomide] + Cc1nc(Nc2ncc(C(=O)Nc3c(C)cccc3Cl)s2)cc(N2CCN(CCO)CC2)n1 [Dasatinib] (partner 0.075 µM), 0.505; as for `Nc1cccc2c1CN(C1CCC(=O)NC1=O)C2=O` (stereo not given) [Lenalidomide] + N=C(N)NC(=N)NCCc1ccccc1 [Phenformin] (partner 250 µM), 0.635.

A further assay concerns NCI-H1944. The assay is described as above. The note with it: first compound 0.253 µM. An outline of the steps:
as §1
In turn, `Nc1cccc2c1CN(C1CCC(=O)NC1=O)C2=O` (stereo not given) [Lenalidomide] + CCNC(=O)c1noc(-c2cc(C(C)C)c(O)cc2O)c1-c1ccc(CN2CCOCC2)cc1 [Luminespib] (partner 0.01 µM) showed a relative viability of 0.675.
In turn, `Nc1cccc2c1CN(C1CCC(=O)NC1=O)C2=O` (stereo not given) [Lenalidomide] + Nc1ncn([C@H]2C[C@H](O)[C@@H](CO)O2)c(=O)n1 [Decitabine] (partner 2 µM) registered a relative viability of 0.446.
Compound `Nc1cccc2c1CN(C1CCC(=O)NC1=O)C2=O` (stereo not given) [Lenalidomide] + Cc1nc(Nc2ncc(C(=O)Nc3c(C)cccc3Cl)s2)cc(N2CCN(CCO)CC2)n1 [Dasatinib] (partner 0.075 µM) came in with a relative viability of 0.239.
`Nc1cccc2c1CN(C1CCC(=O)NC1=O)C2=O` (stereo not given) [Lenalidomide] + N=C(N)NC(=N)NCCc1ccccc1 [Phenformin] (partner 250 µM) came in with a relative viability of 0.213.
